Broadly, the IC50 is the point on the concentration scale where inhibition reaches its midpoint.

Each structure is given as a SMILES string.

Experiment [1] has as its target T1, Mcl-1/Bak protein-protein interactions (Homo sapiens, UniProt Q07820).
T1 construct: expressed in transfected cells; host or cells: HEK 293 M cells, transient transfection
The experiment in a line: Cell-based split luciferase complementation assay. Conditions: HEK 293 M cells, serum-free, 4 h. Here is the method:
Cell-Based Assay (Split Luciferase)
A split luciferase complementation assay was developed to determine the inhibition of Mcl-1/Bak protein-protein interactions in cells. […] Transient transfection was performed using Lipofectamine® LTX/Plus™ reagent (Life Technologies, Grand Island, N.Y.). 24 h after transfection, cells were collected using non-enzyme based cell dissociation buffer StemPro® Accutase® (Life Technologies), and resuspended in serum-free Opti-MEM® (Life Technologies). Cells were then seeded into assay plates with serially diluted test compounds in 0.3% DMSO at density of a 5000 cells/well. Cells were then incubated for 4 h at 37° C. in a cell culture incubator supplement with 5% CO2. Test plates were equilibrated to room temperate for 30 min before addition of 30 μL Steady-Glo® Luciferase assay reagent (Promega, Madison, Wis.) into each test well. Luminescence was determined using an EnVision® Multilabel plate reader 25 min after the addition of detection reagent. IC50 values were then calculated with Xlfit using a logistical 4-parameter fit model in GraphPad Prism (GraphPad Software, San Diego, Calif.) or in Genedata Screener® (Genedata, Basel, Switzerland).

Another experiment relates to OPM-2. The experiment in a line: Cell viability assay (OPM-2 10 FBS, CellTiter-Glo). Format: cell-based, human. The following applies: OPM-2 cells. Here is the method:
Cell Viability Assay (OPM-2 10 FBS)
Cells were seeded into 384-well plates at 3000 cells/well density in complete growth medium containing 10% FBS, and incubated for 16 h with serially diluted test compounds in a 37° C. incubator with 5% CO2. Cell viability was tested using CellTiter-Glo® assay (Promega, Madison, Wis.) according to the manufacturer recommendations. Luminescence was determined using an EnVision® Multilabel plate reader 25 min after the addition of detection reagent. IC50 values were then calculated with Xlfit using a logistical 4-parameter fit model in GraphPad Prism (GraphPad Software, San Diego, Calif.) or in Genedata Screener® (Genedata, Basel, Switzerland).
In general terms: ATP-based viability assays read luminescence as a measure of living cells.

Another experiment deals with T2, recombinant human Mcl-1 (Homo sapiens, UniProt Q07820).
T2 construct: C-terminally 6×His tagged Mcl-1 containing residues 171-327; made in house
T2 sequence (Q07820 171-327): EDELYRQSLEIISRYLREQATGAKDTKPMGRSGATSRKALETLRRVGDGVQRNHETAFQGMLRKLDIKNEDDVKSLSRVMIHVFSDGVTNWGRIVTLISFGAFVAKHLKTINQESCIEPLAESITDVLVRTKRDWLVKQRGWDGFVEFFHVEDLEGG
The experiment in a line: Cell free Mcl-1:Bim affinity assay (Mcl-1 HTRF, TR-FRET). Format: binding. Conditions: inhibition of Mcl-1/Bim interaction. Here is the method:
Cell Free Mcl-1:Bim Affinity Assay (Mcl-1 HTRF)
The inhibition of the Mcl-1/Bim interaction was measured using a time-resolved fluorescence resonance energy transfer (TR-FRET) assay. […] A biotinylated peptide derived from human Bim (residues 51-76) was purchased from CPC Scientific (San Jose, Calif.). The TR-FRET assay was conducted in a 384-well white OptiPlate™ (PerkinElmer, Waltham, Mass.) in a total volume of 40 μL. […] The reaction plates were further incubated overnight and then were read on an Envision® multimode reader (PerkinElmer). […] The IC50 values of test compounds were determined from duplicate data by analyzing competition curves using a four-parameter sigmoidal model in GraphPad Prism (GraphPad Software, San Diego, Calif.) or in Genedata Screener® (Genedata, Basel, Switzerland).

T1 sequence (Q07820 whole entry): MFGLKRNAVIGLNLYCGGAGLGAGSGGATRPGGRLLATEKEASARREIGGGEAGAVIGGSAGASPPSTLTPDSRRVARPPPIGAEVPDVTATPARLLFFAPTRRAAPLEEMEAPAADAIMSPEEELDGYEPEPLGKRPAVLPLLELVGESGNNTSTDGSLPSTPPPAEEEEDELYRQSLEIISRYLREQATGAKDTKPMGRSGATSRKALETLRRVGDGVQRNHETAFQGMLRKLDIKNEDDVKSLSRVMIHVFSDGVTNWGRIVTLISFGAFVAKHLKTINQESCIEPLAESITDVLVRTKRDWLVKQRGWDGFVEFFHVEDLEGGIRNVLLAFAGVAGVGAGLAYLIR

Consider `CCC[C@@H]1[C@@H](C)C/C=C/[C@H](O)[C@@H]2CC[C@H]2CN2C[C@@]3(CCCc4cc(Cl)ccc43)COc3ccc(cc32)C(=O)NS1(=O)=O` (single isomer, unassigned) [Example 69], for which the IC50 in experiment [1] is 0.425 µM; in the experiment with OPM-2 (16 h), 2.71 µM; on recombinant human Mcl-1, 0.00866 µM.
In the same order, the values of `CC(C)C[C@@H]1[C@@H](C)C/C=C/[C@H](O)[C@@H]2CC[C@H]2CN2C[C@@]3(CCCc4cc(Cl)ccc43)COc3ccc(cc32)C(=O)NS1(=O)=O` (single isomer, unassigned) [Example 67] are 0.0848 µM, 0.6 µM and 0.00108 µM.
`CC[C@@H]1CCCC[C@H](O)[C@@H]2CC[C@H]2CN2C[C@@]3(CCCc4ccccc43)COc3ccc(cc32)C(=O)NS1(=O)=O` [Example 22, (1S,3′R,6′R,7′S,12′R)-12′-Ethyl-7′-Hydroxy-3,4-Dihydro-2H,15′H-Spiro[Naphthalene-1,22′-[20]Oxa[13]Thia[1,14]Diazatetracyclo[14.7.2.0^3,6.0^19,24]Pentacos A[16,18,24]Trien]-15′-One 13′,13′-Dioxide]: the IC50 in experiment [1] worked out at 0.117 µM; in the experiment with OPM-2 (Homo sapiens, OPM-2, 16 h) it was 1.25 µM; at recombinant human Mcl-1, 0.000704 µM.
As to `C[C@H]1C/C=C/[C@H](O)[C@@H]2CC[C@H]2CN2C[C@@]3(CCCc4cc(Cl)ccc43)COc3ccc(cc32)C(=O)NS(=O)(=O)[C@@H]1CC1CC1` (single isomer, unassigned) [Example 60], the IC50 in experiment [1] amounted to 0.0234 µM; in the experiment on OPM-2 (16 h), 0.158 µM; on recombinant human Mcl-1 it was 0.000514 µM.
For the compound `CC[C@@H]1CC/C=C/[C@H](OCCOC)[C@@H]2CC[C@H]2CN2C[C@@]3(CCCc4cc(Cl)ccc43)COc3ccc(cc32)C(=O)NS1(=O)=O` [Example 75, (1S,3′R,6′R,7′S,8′E,12′R)-6-Chloro-12′-Ethyl-7′-(2-Methoxyethoxy)-3,4-Dihydro-2H,15′H-Spiro[Naphthalene-1,22′-[20]Oxa[13]Thia[1,14]Diazatetracyclo[14.7.2.0^3,6.0^19,24]Pentacosa[8,16,18,24]Tetraen]-15′-One 13′,13′-Dioxide], the IC50 was 0.159 µM in experiment [1]; 2.56 µM in the experiment with OPM-2 (Homo sapiens, OPM-2, 16 h); 0.00283 µM at recombinant human Mcl-1.
For `C[C@H]1C/C=C/[C@H](O)[C@@H]2CC[C@H]2CN2C[C@@]3(CCCc4cc(Cl)ccc43)COc3ccc(cc32)C(=O)NS(=O)(=O)[C@@H]1C1CC1` (single isomer, unassigned) [Example 45], the IC50 in experiment [1] stood at 0.455 µM; with OPM-2 (16 h), 20 µM; at recombinant human Mcl-1, 0.00551 µM.
On to `CC(C)C[C@@H]1[C@@H](C)C/C=C/[C@H](O)[C@@H]2CC[C@H]2CN2C[C@@]3(CCCc4cc(Cl)ccc43)COc3ccc(cc32)C(=O)NS1(=O)=O` (single isomer, unassigned) [Example 65], for which the IC50 in experiment [1] was found to be 0.376 µM; with OPM-2 (16 h) it was 3.28 µM; on recombinant human Mcl-1 it was 0.0053 µM.
Regarding `CC[C@@H]1C/C=C/[C@H](O)[C@@H]2CC[C@H]2CN2C[C@@]3(CCCc4cc(Cl)ccc43)COc3ccc(cc32)C(=O)NS(=O)(=O)C1` (single isomer, unassigned) [Example 33], the IC50 worked out at 0.872 µM in experiment [1]; 14.9 µM in the experiment with OPM-2 (Homo sapiens, OPM-2, 16 h); 0.00702 µM at recombinant human Mcl-1.
Consider `CC(C)O[C@H]1/C=C/C[C@H](C)[C@@H](C)S(=O)(=O)NC(=O)c2ccc3c(c2)N(C[C@@H]2CC[C@H]21)C[C@@]1(CCCc2cc(Cl)ccc21)CO3` [Example 43, (1S,3′R,6′R,7′S,8′E,11′S,12′R)-6-Chloro-11′,12′-Dimethyl-7′-(1-Methylethoxy)-3,4-Dihydro-2H,15′H-Spiro[Naphthalene-1,22′-[20]Oxa[13]Thia[1,14]Diazatetracyclo[14.7.2.0^3,6.0^19,24]Pentacos A[8,16,18,24]Tetraen]-15′-One-13′,13′-Dioxide], for which the IC50 in experiment [1] worked out at 0.13 µM; with OPM-2 (Homo sapiens, OPM-2, 16 h), 0.901 µM; on recombinant human Mcl-1, 0.00175 µM.
For `CC[C@H]1C/C=C/[C@H](O)[C@@H]2CC[C@H]2CN2C[C@@]3(CCCc4cc(Cl)ccc43)COc3ccc(cc32)C(=O)NS(=O)(=O)C1` (single isomer, unassigned) [Example 34] the same measures were 0.0377 µM, 0.253 µM and 0.000437 µM.
`CC(C)[C@@H]1[C@H](C)C/C=C/[C@H](O)[C@@H]2CC[C@H]2CN2C[C@@]3(CCCc4cc(Cl)ccc43)COc3ccc(cc32)C(=O)NS1(=O)=O` (single isomer, unassigned) [Example 52]: the IC50 in experiment [1] was 0.14 µM; with OPM-2 (16 h), 1.11 µM; on recombinant human Mcl-1, 0.000882 µM.
In the same order, the values of `C[C@@H]1CCC[C@H](O)[C@@H]2CC[C@H]2CN2C[C@@]3(CCCc4cc(Cl)ccc43)COc3ccc(cc32)C(=O)NS(=O)(=O)[C@@H]1C` (single isomer, unassigned) [Example 35] are 0.0843 µM, 0.723 µM and 0.000955 µM.
As to `CCC[C@@H]1[C@@H](C)C/C=C/[C@H](O)[C@@H]2CC[C@H]2CN2C[C@@]3(CCCc4cc(Cl)ccc43)COc3ccc(cc32)C(=O)NS1(=O)=O` [Example 70, (1S,3′R,6′R,7′S,8′E,11′S,12′R)-6-Chloro-7′-Hydroxy-11′-Methyl-12′-Propyl-3,4-Dihydro-2H,15′H-Spiro[Naphthalene-1,22′-[20]Oxa[13]Thia[1,14] Diazatetracyclo [14.7.2.0^3,6.0^19,24]Pentacosa [8,16,18,24]Tetraen]-15′-One 13′,13′-Dioxide], the 50% inhibitory concentration (IC50) came out at 0.0347 µM in experiment [1]; 0.238 µM with OPM-2 (Homo sapiens, OPM-2, 16 h); 0.000638 µM at recombinant human Mcl-1.
For the compound `CC(C)[C@@H]1[C@H](C)C/C=C/[C@H](O)[C@@H]2CC[C@H]2CN2C[C@@]3(CCCc4cc(Cl)ccc43)COc3ccc(cc32)C(=O)NS1(=O)=O` (single isomer, unassigned) [Example 49], the IC50 in experiment [1] was 0.0462 µM; in the experiment with OPM-2 (16 h) it was 0.184 µM; at recombinant human Mcl-1, 0.000317 µM.
For `COCCO[C@H]1/C=C/C[C@H](C)CS(=O)(=O)NC(=O)c2ccc3c(c2)N(C[C@@H]2CC[C@H]21)C[C@@]1(CCCc2cc(Cl)ccc21)CO3` (single isomer, unassigned) [Example 78], the results for the IC50 (in experiment [1]; with OPM-2 (16 h); at recombinant human Mcl-1) were 0.42 µM, 2.74 µM and 0.00267 µM, respectively.
As to `CO[C@H]1CCC[C@H](C)[C@@H](C)S(=O)(=O)NC(=O)c2ccc3c(c2)N(C[C@@H]2CC[C@H]21)C[C@@]1(CCCc2cc(Cl)ccc21)CO3` [Example 7, (1S,3′R,6′R,7′S,11′S,12′R)-6-Chloro-7′-Methoxy-11′,12′-Dimethyl-3,4-Dihydro-2H,15′H-Spiro[Naphthalene-1,22′-[20]Oxa[13]Thia[1,14]Diazatetracyclo[14.7.2.0^3,6.0^19,24]Pentacos A[16,18,24]Trien]-15′-One 13′,13′-Dioxide], the IC50 amounted to 0.147 µM in experiment [1]; 1.06 µM in the experiment with OPM-2 (Homo sapiens, OPM-2, 16 h); 0.00118 µM at recombinant human Mcl-1.
For `CC[C@@H]1[C@@H](C)C/C=C/[C@H](OC)[C@@H]2CC[C@H]2CN2C[C@@]3(CCCc4cc(Cl)ccc43)COc3ccc(cc32)C(=O)NS1(=O)=O` [Example 25, (1S,3′R,6′R,7′S,8′E,11′S,12′R)-6-Chloro-12′-Ethyl-7′-Methoxy-11′-Methyl-3,4-Dihydro-2H,15′H-Spiro[Naphthalene-1,22′-[20]Oxa[13]Thia[1,14]Diazatetracyclo[14.7.2.0^3,6.0^19,24]Pentacosa[8,16,18,24]Tetraen]-15′-One 13′,13′-Dioxide] the same measures were 0.0779 µM, 0.405 µM and 0.000543 µM.
Take `C[C@@H]1C/C=C/[C@H](O)[C@@H]2CC[C@H]2CN2C[C@@]3(CCCc4cc(Cl)ccc43)COc3ccc(cc32)C(=O)NS(=O)(=O)[C@H]1CC1CCC1` (single isomer, unassigned) [Example 63]: the IC50 is 0.0307 µM in experiment [1], 0.183 µM in the experiment with OPM-2 (16 h) and 0.000423 µM on recombinant human Mcl-1.
For `CC(C)C[C@@H]1[C@@H](C)C/C=C/[C@H](O)[C@@H]2CC[C@H]2CN2C[C@@]3(CCCc4cc(Cl)ccc43)COc3ccc(cc32)C(=O)NS1(=O)=O` (single isomer, unassigned) [Example 66], the IC50 in experiment [1] was 0.224 µM; in the experiment on OPM-2 (16 h), 2.33 µM; on recombinant human Mcl-1 it was 0.00212 µM.

These data come from patent US11685747B2, “Compounds that inhibit MCL-1 protein” (AMGEN INC., priority 2014, dated 2023).
